Calls of active or inactive are those of the source.
Key:
[1] = luciferase reporter signal suppression in cells – H4 neuroglioma cells, luminescence, dose response (AID 1990); format: functional, cell-based
Paired box protein Pax-8 = Paired box protein Pax-8 (Homo sapiens, UniProt Q06710); assay: PAX8 transcriptional activity inhibition in RMG-I – RMG-I cells, luciferase, cherry-pick, dose response (AID 687027); format: functional, cell-based;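 also: luciferase reporter driven by Pax8 target thyroperoxidase promoter measured by SteadyGlo luminescence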
Chain of Paired box protein Pax-8 (Q06710 whole entry): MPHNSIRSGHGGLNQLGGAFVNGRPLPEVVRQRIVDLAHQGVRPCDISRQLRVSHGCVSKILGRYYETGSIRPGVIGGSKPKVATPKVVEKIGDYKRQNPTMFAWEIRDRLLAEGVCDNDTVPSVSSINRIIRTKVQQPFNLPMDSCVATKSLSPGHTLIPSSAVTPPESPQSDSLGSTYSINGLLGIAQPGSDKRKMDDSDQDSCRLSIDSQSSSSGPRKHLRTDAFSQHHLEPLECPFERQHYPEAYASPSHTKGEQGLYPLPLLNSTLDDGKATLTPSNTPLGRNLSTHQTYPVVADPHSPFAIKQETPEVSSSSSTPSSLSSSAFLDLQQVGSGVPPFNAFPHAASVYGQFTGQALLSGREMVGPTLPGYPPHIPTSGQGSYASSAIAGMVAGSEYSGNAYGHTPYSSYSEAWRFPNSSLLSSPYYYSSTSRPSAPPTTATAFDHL

[2] = alpha-synuclein stem-loop luciferase translation blockers – H4 neuroglioma cells, luminescence, confirmation (AID 1988); format: functional, cell-based
INS1 = assay: INS-1E survival protection against cytokine death – cell-based, luminescence, retest, dose response (AID 449756); format: functional; settings: Rattus norvegicus;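 also: cell death triggered by IL-1 beta plus TNF-alpha plus IFN-gamma mixture; protective hits raise ATP signal compared with cytokine alone wells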
[3] = Luminescence Cell-Based Dose Response HTS to Identify Inhibitors of 5'UTR Stem-Loop Driven Prion Protein mRNA Translation in H4 Neuroglioblastoma Cells. [Related pubchem assays: 1827 (Project Summary), 1813 (Primary HTS)]; format: functional
[4] = Fluorescence-based cell-based high throughput dose response assay for inhibitors of the interaction of nucleotide-binding oligomerization domain containing 2 (NOD2) and the receptor-interacting serine-threonine kinase 2 (RIPK2).; format: functional; settings: Homo sapiens
[5] = general mammalian cell viability loss – activator set, cherry-pick, cytotoxicity control for miR-122 modulator project, dose response (AID 720690); format: functional, cell-based;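 also: HEK293T human cells scored for general mammalian cytotoxicity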
[6] = activation of miR-122 Renilla sensor silencing – cell-based, Huh7 psiCHECK-miR122, Renilla luciferase, cherry-picked, dose response (AID 651956); format: functional;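 also: huh7 hepatoma cells stably carrying a psiCHECK-2 miR-122 sensor plasmid; renilla luciferase signal reporting endogenous miR-122 activity after 48 h compound exposure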
[7] = general mammalian cell viability loss – inhibitor set, cherry-pick, set 2, cytotoxicity control for miR-122 modulator project, dose response (AID 720697); format: functional, cell-based
[8] = biological target: Apoptotic protease-activating factor 1 (Homo sapiens, UniProt O14727); format: functional
[9] = biological target: T1, Voltage-gated N-type calcium channel alpha-1B subunit/Amyloid beta A4 precursor protein-binding family A member 1 (Homo sapiens, UniProt Q00975+Q02410); format: protein assay
T1 sequence (Q00975 whole entry): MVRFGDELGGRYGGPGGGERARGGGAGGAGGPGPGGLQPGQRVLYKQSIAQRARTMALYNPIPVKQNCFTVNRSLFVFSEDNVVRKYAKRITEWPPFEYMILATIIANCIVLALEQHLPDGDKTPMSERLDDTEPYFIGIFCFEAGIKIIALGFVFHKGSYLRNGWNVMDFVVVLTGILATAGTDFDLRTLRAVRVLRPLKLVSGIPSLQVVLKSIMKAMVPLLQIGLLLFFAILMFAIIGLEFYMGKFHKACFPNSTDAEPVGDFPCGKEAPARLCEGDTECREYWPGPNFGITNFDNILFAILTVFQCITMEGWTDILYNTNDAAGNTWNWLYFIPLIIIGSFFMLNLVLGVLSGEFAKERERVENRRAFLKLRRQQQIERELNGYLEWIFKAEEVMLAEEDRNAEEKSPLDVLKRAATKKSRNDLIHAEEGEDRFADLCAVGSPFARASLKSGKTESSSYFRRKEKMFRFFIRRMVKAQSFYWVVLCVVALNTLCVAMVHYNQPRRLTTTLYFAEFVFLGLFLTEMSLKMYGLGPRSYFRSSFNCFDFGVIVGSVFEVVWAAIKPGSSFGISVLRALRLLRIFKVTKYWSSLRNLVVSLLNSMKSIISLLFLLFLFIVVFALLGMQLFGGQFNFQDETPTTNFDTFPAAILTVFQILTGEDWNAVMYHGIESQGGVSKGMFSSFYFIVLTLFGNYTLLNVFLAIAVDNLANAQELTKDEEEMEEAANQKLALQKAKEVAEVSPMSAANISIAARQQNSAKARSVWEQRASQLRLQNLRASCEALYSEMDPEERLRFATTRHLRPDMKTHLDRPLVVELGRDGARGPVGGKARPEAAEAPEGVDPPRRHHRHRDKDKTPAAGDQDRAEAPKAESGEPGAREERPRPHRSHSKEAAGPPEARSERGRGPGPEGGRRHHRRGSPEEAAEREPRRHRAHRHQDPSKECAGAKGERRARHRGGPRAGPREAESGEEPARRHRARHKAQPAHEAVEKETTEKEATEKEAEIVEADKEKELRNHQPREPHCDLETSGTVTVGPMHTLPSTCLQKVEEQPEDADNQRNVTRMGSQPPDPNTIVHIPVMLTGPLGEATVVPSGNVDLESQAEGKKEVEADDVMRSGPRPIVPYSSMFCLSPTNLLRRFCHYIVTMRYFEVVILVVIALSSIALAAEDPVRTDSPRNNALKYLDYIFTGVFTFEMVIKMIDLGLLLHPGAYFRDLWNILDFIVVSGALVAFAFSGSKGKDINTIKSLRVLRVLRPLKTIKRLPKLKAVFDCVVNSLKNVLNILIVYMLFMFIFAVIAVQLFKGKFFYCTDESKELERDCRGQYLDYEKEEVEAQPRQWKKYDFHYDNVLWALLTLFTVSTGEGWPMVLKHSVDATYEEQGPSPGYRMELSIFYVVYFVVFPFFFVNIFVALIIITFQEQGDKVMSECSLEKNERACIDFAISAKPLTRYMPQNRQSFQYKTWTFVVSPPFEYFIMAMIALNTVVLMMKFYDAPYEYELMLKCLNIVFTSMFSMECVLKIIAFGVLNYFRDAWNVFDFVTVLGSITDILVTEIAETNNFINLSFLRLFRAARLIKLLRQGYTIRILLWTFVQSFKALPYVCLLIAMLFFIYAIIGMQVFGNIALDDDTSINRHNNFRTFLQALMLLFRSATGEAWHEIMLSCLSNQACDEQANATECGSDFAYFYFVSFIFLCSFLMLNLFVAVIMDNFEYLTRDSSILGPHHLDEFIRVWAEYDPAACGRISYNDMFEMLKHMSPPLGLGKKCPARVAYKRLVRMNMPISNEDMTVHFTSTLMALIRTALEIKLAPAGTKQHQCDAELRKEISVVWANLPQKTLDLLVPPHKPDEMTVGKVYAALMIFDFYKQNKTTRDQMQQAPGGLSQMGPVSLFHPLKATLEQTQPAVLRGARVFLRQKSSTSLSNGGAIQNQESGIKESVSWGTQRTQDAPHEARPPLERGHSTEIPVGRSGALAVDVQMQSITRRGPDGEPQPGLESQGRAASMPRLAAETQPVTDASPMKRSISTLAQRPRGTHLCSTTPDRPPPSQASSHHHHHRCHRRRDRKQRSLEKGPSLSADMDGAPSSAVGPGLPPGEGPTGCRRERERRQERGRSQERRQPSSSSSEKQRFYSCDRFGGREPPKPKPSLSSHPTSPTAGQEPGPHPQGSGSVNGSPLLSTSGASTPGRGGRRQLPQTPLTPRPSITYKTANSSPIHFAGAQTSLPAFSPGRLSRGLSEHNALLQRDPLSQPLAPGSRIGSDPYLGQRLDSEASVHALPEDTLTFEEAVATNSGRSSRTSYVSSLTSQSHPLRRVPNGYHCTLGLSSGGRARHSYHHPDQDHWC
T1 sequence (Q02410 whole entry): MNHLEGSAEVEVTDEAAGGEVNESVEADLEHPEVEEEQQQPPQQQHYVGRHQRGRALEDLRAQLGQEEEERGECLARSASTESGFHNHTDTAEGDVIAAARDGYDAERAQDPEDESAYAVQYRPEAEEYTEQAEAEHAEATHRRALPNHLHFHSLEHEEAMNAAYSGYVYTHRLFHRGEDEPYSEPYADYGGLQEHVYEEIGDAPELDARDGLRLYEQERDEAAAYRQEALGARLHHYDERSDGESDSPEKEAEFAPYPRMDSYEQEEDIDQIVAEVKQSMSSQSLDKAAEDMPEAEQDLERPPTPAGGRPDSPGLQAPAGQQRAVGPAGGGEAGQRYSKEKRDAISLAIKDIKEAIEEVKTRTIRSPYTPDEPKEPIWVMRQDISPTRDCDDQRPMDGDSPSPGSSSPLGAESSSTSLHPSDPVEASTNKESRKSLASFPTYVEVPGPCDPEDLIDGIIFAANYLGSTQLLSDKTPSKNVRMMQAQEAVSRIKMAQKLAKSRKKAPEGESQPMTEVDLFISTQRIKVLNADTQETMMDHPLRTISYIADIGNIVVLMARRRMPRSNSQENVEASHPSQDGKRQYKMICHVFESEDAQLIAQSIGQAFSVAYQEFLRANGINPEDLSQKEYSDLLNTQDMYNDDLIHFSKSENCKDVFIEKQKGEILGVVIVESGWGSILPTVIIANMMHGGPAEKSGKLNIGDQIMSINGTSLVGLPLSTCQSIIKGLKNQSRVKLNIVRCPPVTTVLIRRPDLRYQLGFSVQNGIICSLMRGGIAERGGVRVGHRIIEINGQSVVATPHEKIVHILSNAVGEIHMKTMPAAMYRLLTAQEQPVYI

[10] = biological target: T2, Sentrin-specific protease 8 (Homo sapiens, UniProt Q96LD8); format: functional
T2 sequence (Q96LD8 whole entry): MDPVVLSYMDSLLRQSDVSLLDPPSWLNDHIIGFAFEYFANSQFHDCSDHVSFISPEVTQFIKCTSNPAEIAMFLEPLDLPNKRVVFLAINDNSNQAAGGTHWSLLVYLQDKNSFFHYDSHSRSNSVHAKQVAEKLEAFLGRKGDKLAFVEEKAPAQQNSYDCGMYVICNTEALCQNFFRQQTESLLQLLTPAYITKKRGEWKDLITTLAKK

[11] = biological target: T2, Sentrin-specific protease 8; format: functional; remark: listed apart in the source
[12] = biological target: T3, Zinc finger protein mex-5 (Caenorhabditis elegans, UniProt Q9XUB2); assay: potency of MEX-5 RNA-binding blockers – biochemical, C. elegans, fluorescence polarization, dose response (AID 1960)
T3 sequence (Q9XUB2 whole entry): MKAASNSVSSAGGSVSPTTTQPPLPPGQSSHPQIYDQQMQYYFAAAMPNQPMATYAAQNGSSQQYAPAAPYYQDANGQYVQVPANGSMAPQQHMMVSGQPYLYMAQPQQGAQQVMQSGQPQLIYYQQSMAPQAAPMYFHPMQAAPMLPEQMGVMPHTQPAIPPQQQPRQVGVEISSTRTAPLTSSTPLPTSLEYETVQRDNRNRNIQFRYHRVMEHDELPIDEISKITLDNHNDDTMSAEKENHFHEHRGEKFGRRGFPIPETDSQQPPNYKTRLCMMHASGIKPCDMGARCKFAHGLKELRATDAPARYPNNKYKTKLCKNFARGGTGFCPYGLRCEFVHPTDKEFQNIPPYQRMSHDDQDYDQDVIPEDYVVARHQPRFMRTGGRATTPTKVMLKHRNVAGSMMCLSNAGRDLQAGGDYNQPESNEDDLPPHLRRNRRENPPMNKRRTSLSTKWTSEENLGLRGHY

[13] = biological target: T4, RNA-binding protein pos-1 (Caenorhabditis elegans, UniProt G5EF15); assay: disruptors of C. elegans POS-1 RNA interaction – biochemical, fluorescence polarization, dose response (AID 1964);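 also: purified POS-1 fused to maltose binding protein made in E. coli; potency of compounds blocking POS-1 binding to fluorescent RNA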
T4 sequence (G5EF15 whole entry): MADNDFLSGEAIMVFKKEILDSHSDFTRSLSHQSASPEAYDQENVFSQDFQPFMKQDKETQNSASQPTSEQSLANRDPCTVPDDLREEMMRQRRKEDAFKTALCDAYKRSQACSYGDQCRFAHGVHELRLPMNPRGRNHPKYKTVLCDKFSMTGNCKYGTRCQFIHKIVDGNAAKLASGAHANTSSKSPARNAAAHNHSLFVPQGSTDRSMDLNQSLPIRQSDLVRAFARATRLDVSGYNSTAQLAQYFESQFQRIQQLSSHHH

SUMO-activating enzyme [14] = biological target: T5, SUMO-activating enzyme (Homo sapiens, UniProt Q9UBT2); assay: blockers of UBC9-mediated SUMO conjugation – biochemical, AlphaScreen, SUMOylation inhibitor project, confirmation (AID 2018); format: functional
T5 sequence (Q9UBE0 whole entry): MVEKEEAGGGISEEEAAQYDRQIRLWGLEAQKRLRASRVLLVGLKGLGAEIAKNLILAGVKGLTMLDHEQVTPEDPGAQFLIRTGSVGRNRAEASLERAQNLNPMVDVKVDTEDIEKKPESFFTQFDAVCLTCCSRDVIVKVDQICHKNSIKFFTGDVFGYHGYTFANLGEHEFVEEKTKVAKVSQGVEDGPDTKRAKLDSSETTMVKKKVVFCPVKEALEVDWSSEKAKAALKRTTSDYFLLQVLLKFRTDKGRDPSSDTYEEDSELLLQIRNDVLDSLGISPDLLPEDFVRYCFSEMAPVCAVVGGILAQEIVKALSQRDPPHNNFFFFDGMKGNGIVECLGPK
T5 sequence (Q9UBT2 whole entry): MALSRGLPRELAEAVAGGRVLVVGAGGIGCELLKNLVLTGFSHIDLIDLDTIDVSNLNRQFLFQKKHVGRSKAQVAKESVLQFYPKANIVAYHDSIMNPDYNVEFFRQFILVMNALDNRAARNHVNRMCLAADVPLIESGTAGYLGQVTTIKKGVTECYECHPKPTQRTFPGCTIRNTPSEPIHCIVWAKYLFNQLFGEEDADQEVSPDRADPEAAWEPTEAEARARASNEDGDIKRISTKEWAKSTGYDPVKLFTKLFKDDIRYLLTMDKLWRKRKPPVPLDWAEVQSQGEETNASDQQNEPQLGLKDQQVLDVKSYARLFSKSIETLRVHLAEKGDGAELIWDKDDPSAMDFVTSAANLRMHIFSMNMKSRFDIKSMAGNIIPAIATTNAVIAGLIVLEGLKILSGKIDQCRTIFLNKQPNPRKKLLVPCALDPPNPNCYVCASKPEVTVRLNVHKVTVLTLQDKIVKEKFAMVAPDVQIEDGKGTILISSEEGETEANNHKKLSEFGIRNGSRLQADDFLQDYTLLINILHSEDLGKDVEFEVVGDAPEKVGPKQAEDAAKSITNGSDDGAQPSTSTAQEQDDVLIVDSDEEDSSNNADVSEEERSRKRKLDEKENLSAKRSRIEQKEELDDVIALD

[15] = biological target: T1, Voltage-gated N-type calcium channel alpha-1B subunit/Amyloid beta A4 precursor protein-binding family A member 1; format: protein assay; remark: listed apart in the source
SUMO-activating enzyme [16] = biological target: T5, SUMO-activating enzyme; assay: blockers of SAE1/SAE2–UBC9 SUMO transfer – biochemical, HTRF, uHTS, primary screen (AID 2006); format: protein-complex assay
cells [17] = format: functional, cell-based
cells [18] = format: functional, cell-based; remark: listed apart in the source
Albumin = Albumin (Bos taurus, UniProt P02769); assay: Counterscreen for inhibitors of T-cell receptor (TCR)-CD3 interaction: Fluorescence-based biochemical high throughput dose response assay to identify inhibitors of T-cell receptor (TCR)-CD3 interaction using a TAMRA-labeled BSA probe.; format: functional

O=C(Nc1cccc(NC(=O)c2ccccc2Cl)c1)c1ccc([N+](=O)[O-])o1
EC50 [1]: 8.33 µM (active) | AC50 (Paired box protein Pax-8): 2.48 µM (active) | EC50 [2]: 8.12 µM (active) | AC50 (INS1): 7.35 µM (active) | EC50 [3]: 9.73 µM (active)

COc1ccc(CC2=CC(=O)c3ccccc3C2=O)cc1
IC50 [4]: 4.12 µM (active) | AC50 [5]: 5.27 µM (active) | AC50 [6]: 20.7 µM (active) | AC50 [7]: 10.2 µM (active)

c1coc(-c2nnc(-c3ccco3)nn2)c1
IC50 [8]: 15.8 µM (active) | IC50 [9]: 17.7 µM (active) | IC50 [10]: 9.28 µM (active) | IC50 [11]: 5.41 µM (active) | EC50 [12]: 7.69 µM (active) | EC50 [13]: 7.92 µM (inconclusive) | IC50 (SUMO-activating enzyme [14]): 0.99 µM (active) | IC50 [15]: 1.66 µM (active) | IC50 (SUMO-activating enzyme [16]): 6.47 µM (active)

Cn1c(O)c(/C=N/NC(=O)c2cc3ccccc3cc2O)c2ccccc21
EC50 (cells [17]): 128 µM (active) | EC50 (cells [18]): 4.07 µM (active) | IC50 (Albumin): > 94.1 µM (inactive)

From ChEMBL document CHEMBL1201862, “PubChem BioAssay data set” (2004)
